Laboratory results: patent publication US9512139B2, “Conformationally constrained, fully synthetic macrocyclic compounds” (POLYPHOR AG, priority 2009, dated 2016)

Key:
[1] = Metabolic stability assay, human microsomes; assay type: in vitro ADME; conditions: human, microsomes; for Metabolic Stability 60 min hum [% remain.]: 1 h
human Kv1.3 = molecular target: T1, human Kv1.3 (Homo sapiens, UniProt P22001); experiment: Thallium-sensitive fluorescence assay for the voltage gated ion channel Kv1.3 in Jurkat cells; assay type: cell-based; conditions: for inhibition at 10 µM: Jurkat, read-out: KV1,3 antagonist activity [% Inhibition at 10 μM]; for IC50: read-out: KV1,3 antagonist activity IC50
T1 construct: expressed in transfected cells; host or cells: Jurkat cells
T1 sequence (P22001 whole entry): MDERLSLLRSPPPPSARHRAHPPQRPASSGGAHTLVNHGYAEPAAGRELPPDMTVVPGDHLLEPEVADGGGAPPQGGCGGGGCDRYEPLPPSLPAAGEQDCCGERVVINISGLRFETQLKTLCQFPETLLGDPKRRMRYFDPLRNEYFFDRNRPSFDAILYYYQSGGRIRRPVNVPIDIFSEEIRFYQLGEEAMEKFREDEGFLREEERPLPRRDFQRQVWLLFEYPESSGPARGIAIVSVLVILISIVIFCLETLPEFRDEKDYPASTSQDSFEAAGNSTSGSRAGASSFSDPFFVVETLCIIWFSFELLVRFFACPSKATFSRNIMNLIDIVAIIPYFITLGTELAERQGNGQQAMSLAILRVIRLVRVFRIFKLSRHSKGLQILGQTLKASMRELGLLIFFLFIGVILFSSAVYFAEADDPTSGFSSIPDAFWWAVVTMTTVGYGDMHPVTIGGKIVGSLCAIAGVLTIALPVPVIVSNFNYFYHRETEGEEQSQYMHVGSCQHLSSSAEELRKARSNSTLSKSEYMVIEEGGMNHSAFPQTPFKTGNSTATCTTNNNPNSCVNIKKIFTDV
Description: 2. Assay for the Voltage Gated Ion Channel Kv1.3
Assays were performed and analyized with a FLIPR^TETRA device as specified above.
Compounds for inhibition of ion channel Kv1.3 were assayed in Jurkat cells recombinantly expressing human Kv1.3. For high throughput screening a thallium-sensitive, fluorescence-based assay was used. […] To identify blockers of this ion channel the cells were incubated with different concentrations of compounds 5 min before increasing the potassium and thallium concentration. The fluorescence signals by increasing potassium were then compared in the absence and presence of compounds. Dose response curves were established by adding different concentrations of compounds and analyzing the signal. As reference Kv1.3 blockers margatoxin and quinidine in Cl-free buffer were used as described in the literature.
The results of the Kv1.3 assay are depicted in Table 51 below.

in vitro [2] = assay type: in vitro ADME, mouse; conditions: plasma; for Plasma Stability 240 min mouse [% remain.]: 4 h
Description: Example compounds were dissolved in DMSO/H2O 90:10 to a final concentration of 10 mM for plasma stability determination and metabolic stability determination.
Human plasma (3-5 donors, Blutspendedienst SRK, Basel) and CD-1 mouse plasma (mixed gender pool >50 animals, Innovative Research, CA, USA) are both sodium citrate stabilized. The assay is performed in triplicates at 10 μM compound concentration and 37° C. Samples are taken at 0, 15, 60, and 240 minutes and stopped by precipitation with 2 volumes of acetonitrile. The supernatant is collected, evaporated and reconstituted in a 5% acetonitrile solution to be analyzed by HPLC/MS/MS. The resulting peak area counts are expressed in percent of the 0 value and used to determine the endpoint stability in % and the half life in minutes. In order to monitor assay integrity the degradation of propantheline is assayed with every experimental set.

in vitro [3] = assay type: in vitro ADME, human; conditions: human, plasma; for Plasma Stability 240 min hum [% remain.]: 4 h
[4] = Metabolic stability assay, CD-1 mouse microsomes; assay type: in vitro ADME; conditions: microsomes; for Metabolic Stability 60 min mouse [% remain.]: 1 h
Purinoreceptor P2Y1 = molecular target: T2, Purinoreceptor P2Y1 (Homo sapiens, UniProt P47900); experiment: Ca2+ assay (FLIPR) for the GPCR purinoreceptor P2Y1, agonist and antagonist mode; assay type: cell-based; conditions: P2Y1 receptor
T2 construct: host or cells: Ca2+ optimized hematopoietic cell lines (rat)
T2 sequence (P47900 whole entry): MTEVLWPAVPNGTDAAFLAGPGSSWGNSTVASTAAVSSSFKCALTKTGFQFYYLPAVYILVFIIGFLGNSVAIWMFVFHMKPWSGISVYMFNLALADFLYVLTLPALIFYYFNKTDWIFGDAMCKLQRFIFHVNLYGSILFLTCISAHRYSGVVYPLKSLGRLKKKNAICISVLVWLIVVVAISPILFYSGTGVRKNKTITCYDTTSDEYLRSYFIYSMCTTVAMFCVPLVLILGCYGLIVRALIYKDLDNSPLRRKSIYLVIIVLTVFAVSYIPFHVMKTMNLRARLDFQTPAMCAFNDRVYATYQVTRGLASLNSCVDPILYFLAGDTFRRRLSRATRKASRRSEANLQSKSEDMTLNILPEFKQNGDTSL
Description: Biological and Pharmacological Methods 1. Ca^2+ Assays for the GPCRs Motilin Receptor, Prostaglandin F (FP) Receptor, 5-hydroxytryptamine 2B (5-HT2B) Receptor, and Purinoreceptor P2Y1
Assays were performed using on a FLIPR^TETRA fluorometric imaging plate reader (Molecular Devices) with ScreenWorks Version 2 (Molecular Devices) as device operating and data analysis software.
Dose dependent agonist and antagonist activities were determined. Percentage activation and percentage inhibition values were determined.
Percentage activation was determined upon initial addition of the sample compounds followed by 10 minutes incubation at 25° C. Following compound incubation, reference agonists were added at EC80 to determine percentage inhibition.
Reference agonists were purchased from reputable commercial vendors and prepared according to each ligand's specifications. All handling of ligands were done to ensure proper control throughout the experiments.
Example compounds were weighed on a Microbalance (Mettler MX5) and dissolved in 100% DMSO to a final concentration of 2.5 mM and subsequently diluted into the assay buffer.
The Assay buffer was a supplemented HBSS (Hank's Balanced Salt Solution). HBSS was supplemented with 20 mM HEPES (4-(2-hydroxyethyl)-piperazin-1-ethansulfonic acid) and 2.5 mM Probenecid (Sigma P8761).
GPCR assays were performed using Ca^2+ optimized hematopoietic cell lines (rat) with cultures never exceeding 90% confluency. Cells were harvested and seeded (from cultures at less than 90% confluency) at 50000 cells/well for a 96-well plate (12500 cells/well for 384). After seeding, the assay plates were incubated for forty-five (45) minutes at room temperature. After room temperature incubation, the assay plates were incubated at 37° C. 5% CO2 for 24 hours prior to assaying.
All GPCR assays were performed using Fluo-8 Ca^2+ dye. Ca^2+ dye was prepared at 1× dye concentration in GPCR assay buffer. After 24 hours of incubation, cells were washed with GPCR assay buffer, and then Ca^2+-dye (100 μL/well) was added.
The plates were incubated for 90 minutes at 30° C. 5% CO2 prior to FLIPR assay.
Compound plates were prepared to add 50 μL/well during the agonist assay mode. During the FLIPR assay, 50 μL/well from the compound plate was diluted 3-fold into the existing 100 μL/well from the dye loading step. Therefore all compounds were prepared as 3× the final concentration desired in the assay.
After completion of the first single addition assay run, assay plate was removed from the FLIPR Tetra and placed at 25° C. for seven (7) minutes before antagonist assay.
Using the EC80 values determined during the agonist assay, all pre-incubated sample compound and reference antagonist (if applicable) wells were stimulated at the EC80 of the reference agonist. As reference ligands for the first three assays their obvious natural ligands motilin, prostaglandin F2α, and serotonin (5-HT, 5-Hydroxytryptamine) were used; and for the P2Y1 assay 2MeSATP (2-methyl-thio-adeno-sine 5′-triphosphate, i.e. (2R,3S,4R)-5-(6-amino-2-methylsulfanyl-purin-9-yl)-3,4-dihydroxy-tetrahydrofuran-2-yl]methyl (hydroxy-phosphonooxy-phosphoryl)hydrogen phosphate) was applied.
After the addition of the reference agonist fluorescence was monitored for 180 sec using FLIPR Tetra.
Data Analysis and Results:
From the FLIPR data, with negative control correction enabled, the maximum statistic for each well was exported and percentage activation relative to Emax control was calculated.

[5] = system: MAPK/MEK/B-raf pathway (AP1-bla A375 cells); experiment: MAPK/MEK/B-raf AP1-bla A375 inhibitor screen, constitutively activated (negative control of the Wnt assay); assay type: cell-based; conditions: read-out: AP receptor gene activity IC50
Description: (§1) 3. Assays for the Wnt-Pathway
(§2) For determining the activity of the test compounds on the Wnt-pathway each substances war subjected to two distinct assays: The first (Wnt/Beta-Catenin) assay screened for inhibitors of the Wnt-pathway while the second (MAPK/MEK/B-raf) was conducted in order to confirm that the test compounds modulate the β-catenin-dependent, canonical Wnt pathway and are not acting via a possibly competing β-catenin-independent, noncanonical Wnt messaging system.
(§3) Both assays were performed and analyzed with a Tecan Safire^2 fluorescence plate reader.
MAPK/MEK/B-raf—APl-bla A375—Inhibitor Screen, Constitutively Activated
(§4) AP1-bla A375 cells are thawed and resuspended in Assay Media (OPTI-MEM, 0.5% dialyzed FBS, 0.1 mM NEAA, 1 mM Sodium Pyruvate, 100 U/mL/100 μg/mL Pen/Strep) to a concentration of 312,500 cells/mL. 4 μL of a 10× serial dilution of Raf1 Kinase Inhibitor (control inhibitor starting concentration, 10,000 nM) or compounds are added to appropriate wells of a TC-Treated assay plate. 32 μL of cell suspension (10,000 cells) is added to the wells. 4 μL of Assay Media is added to all wells to bring the final assay volume to 40 μL. The plate is incubated for 16-24 hours at 37° C./5% CO2 in a humidified incubator. 8 μL of 1 μM Substrate Loading Solution is added to each well and the plate is incubated for 2 hours at room temperature.

[6] = system: Wnt/Beta-Catenin pathway (LEF-TCF-bla SW480 cells); experiment: Wnt/Beta-Catenin (APC-/-) LEF-TCF-bla SW480 inhibitor screen, constitutively activated; assay type: cell-based
Description: as §1, §2, §3
Wnt/Beta-Catenin (APC−/−)—LEF-TCF-bla SW480—Inhibitor Screen, Constitutively Activated
as §4, with “LEF-TCF-bla SW480” for “AP1-bla A375”, “ICG-001” for “Raf1 Kinase Inhibitor”
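Throughout, for Plasma Stability 240 min mouse [% remain.]: sodium citrate stabilized mouse plasma, parent compound quantified by HPLC/MS/MS relative to its peak area at time zero, run in triplicate.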
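Throughout, for Plasma Stability T½ [min] mouse: sodium citrate stabilized mouse plasma, parent compound quantified by HPLC/MS/MS relative to its peak area at time zero, run in triplicate.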

CCCCC(=O)N[C@H]1C[C@H]2COc3cccc(c3)C(=O)N(C)CC[C@H](NC(=O)CCc3ccncc3)C(=O)N2C1 [Ex. 170]
Metabolic Stability T½ [min] hum [1]: > 60 min
Metabolic Stability 60 min hum [% remain.] [1]: 60 % remain.
KV1,3 antagonist activity [% Inhibition at 10 μM] (human Kv1.3; 10 μM): 10%
Plasma Stability T½ [min] mouse (in vitro [2]; mouse): > 240 min
Plasma Stability 240 min mouse [% remain.] (in vitro [2]; mouse): 100 % remain.
Plasma Stability T½ [min] hum (in vitro [3]): > 240 min
Plasma Stability 240 min hum [% remain.] (in vitro [3]): 92 % remain.
Metabolic Stability T½ [min] mouse ([4]; mouse): > 60 min
Metabolic Stability 60 min mouse [% remain.] ([4]; mouse): 86 % remain.

CCCCC(=O)N[C@@H]1C[C@H]2CSc3cccc(c3)C(=O)N(C)[C@H](C(=O)NCc3ccc4ccccc4c3)CCC(=O)N(C)CC(=O)N2C1 [Ex. 322, (4S,6R,15S)-11,16-dimethyl-N-(2-naphthylmethyl)-9,12,17-trioxo-6-(pentanoylamino)-2-thia-8,11,16-triazatricyclo[16.3.1.0^4,8]docosa-1(22),18,20-triene-15-carboxamide]
inhibition at 10 µM (Purinoreceptor P2Y1): 60%

CN1CC(=O)N2C[C@@H](NC(=O)Cc3ccc4ccccc4c3)C[C@H]2COc2ccc(F)cc2C(=O)N(C)[C@H](C(=O)NCc2cccc3ccccc23)CCC1=O [Ex. 501, (2S,11S,19aS)-15-fluoro-7,12-dimethyl-2-{[2-(2-naphthyl)acetyl]amino}-N-(1-naphthylmethyl)-5,8,13-trioxo-2,3,6,7,8,9, 10,11,12,13,19,19a-dodecahydro-1H,5H-pyrrolo[2,1-c] [1,4,7,12]benzoxatriazacyclo-pentadecine-11-carboxamide]
IC50 [5]: > 50 µM
TCF/LEF receptor gene activity [% inhibition at 10 μM] ([6]; 10 μM): 100%
IC50 ([6]; read-out: TCF/LEF receptor gene activity IC50): 1.1 µM

CN1CC[C@H](NC(=O)Cc2cccc3ccccc23)C(=O)N2C[C@@H](NC(=O)Cc3ccc4ccccc4c3)C[C@H]2COc2cccc(c2)C1=O [Ex. 177, N-[(4S,6S,10S)-13-methyl-6-{[2-(2-naphthyl)acetyl]amino}-9,14-dioxo-2-oxa-8,13-diazatricyclo[13.3.1.0^4,8]nonadeca-1(19),15,17-trien-10-yl]-2-(1-naphthyl)acetamide]
inhibition at 10 µM (human Kv1.3): 54%
IC50 (human Kv1.3): 3.5 µM

CC(=O)N[C@@H]1C[C@H]2CSc3cccc(c3)C(=O)N(C)[C@H](C(=O)NCc3ccc4ccccc4c3)CCC(=O)N(C)CC(=O)N2C1 [Ex. 320, (4S,6R,15S)-6-(acetylamino)-11,16-dimethyl-N-(2-naphthylmethyl)-9,12,17-trioxo-2-thia-8,11,16-triazatricyclo[16.3.1.0^4,8]docosa-1(22),18,20-triene-15-carboxamide]
inhibition at 10 µM (Purinoreceptor P2Y1): 19%

CN1CC(=O)N2C[C@H](NC(=O)CCc3ccncc3)C[C@H]2CSc2cccc(c2)C(=O)N(C)[C@H](C(=O)NCc2ccc3ccccc3c2)CCC1=O [Ex. 321, (4S,6R,15S)-11,16-dimethyl-N-(2-naphthylmethyl)-9,12,17-trioxo-6-{[3-(4-pyridinyl)propanoyl]amino}-2-thia-8,11,16-triazatricyclo[16.3.1.0^4,8]docosa-1(22),18,20-triene-15-carboxamide]
IC50 (Purinoreceptor P2Y1): 7.5 µM
inhibition at 10 µM (Purinoreceptor P2Y1): 45%

CN1CC(=O)N2C[C@H](NC(=O)OC(C)(C)C)C[C@H]2CSc2cccc(c2)C(=O)N(C)[C@H](C(=O)NCc2ccc3ccccc3c2)CCC1=O [Ex. 316, tert-butyl N-[(4S,6R,15S)-11,16-dimethyl-15-{[(2-naphthylmethyl)amino]carbonyl}-9,12,17-trioxo-2-thia-8,11,16-triazatricyclo[16.3.1.0^4,8]docosa-1(22),18,20-trien-6-yl]carbamate]
inhibition at 10 µM (Purinoreceptor P2Y1): 57%

CCCCC(=O)N[C@H]1C[C@H]2COc3cccc(c3)C(=O)N(C)CC[C@H](NC(=O)c3ccc4ccccc4c3)C(=O)N2C1 [Ex. 171, N-[(4S,6S,10S)-13-methyl-9,14-dioxo-6-(pentanoylamino)-2-oxa-8,13-diazatricyclo[13.3.1.0^4,8]nonadeca-1(19),15,17-trien-10-yl]-2-naphthamide]
inhibition at 10 µM (human Kv1.3): 12%

CCCCC(=O)N[C@H]1C[C@H]2COc3cccc(c3)C(=O)N(C)CC[C@H](NC(=O)OCc3ccccc3)C(=O)N2C1 [Ex. 166, benzyl N-[(4S,6S,10S)-13-methyl-9,14-dioxo-6-(pentanoylamino)-2-oxa-8,13-diazatricyclo[13.3.1.0^4,8]nonadeca-1(19),15,17-trien-10-yl]carbamate]
inhibition at 10 µM (human Kv1.3): 20%

CN1CCC(NC(=O)OCc2ccccc2)C(=O)N2CC(NC(=O)Cc3ccc4ccccc4c3)CC2COc2cccc(c2)C1=O [Ex. 168, benzyl N-[(4S,6S,10S)-13-methy1-6-{[2-(2-naphthyl)acetyl]amino}-9,14-dioxo-2-oxa-8,13-diazatricyclo [13.3.1.0^4,8]nonadeca-1(19),15,17-trien-10-yl]carbamate]
half-life at 10 µM ([1]; both sexes): 0.417 h
Metabolic Stability 60 min hum [% remain.] ([1]; both, 10 µM): 17 % remain.
inhibition at 10 µM (human Kv1.3): 44%
IC50 (human Kv1.3): 1.69 µM
Plasma Stability T½ [min] mouse (in vitro [2]; both, CD-1, mouse, 10 µM): > 240 min
Plasma Stability 240 min mouse [% remain.] (in vitro [2]; both, CD-1, mouse, 10 µM): 99 % remain.
Plasma Stability T½ [min] hum (in vitro [3]; 10 µM): > 240 min
Plasma Stability 240 min hum [% remain.] (in vitro [3]; 10 µM): 85 % remain.
half-life at 10 µM ([4]; both sexes, CD-1, mouse): 0.433 h
Metabolic Stability 60 min mouse [% remain.] ([4]; both, CD-1, mouse, 10 µM): 21 % remain.
